Measurements reported in patent publication US8883745B2, “C—glycolipids with enhanced Th-1 profile” (New York University, priority 2006, dated 2014).

Assays:
Format in all cases: in vivo
IL-4 [1] = assay: IL-4 levels in sera upon i.v. glycolipid administration to BALB/c mice (ELISA); set-up: unit not given here
Protocol: (§1) Five- to six-week-old female C57BL/6 mice and BALB/c mice were purchased from Taconic. Each glycolipid was stored at 1 mg/ml in 100% DMSO. Mice were injected intravenously with 1 μg of each glyocolipid diluted in 200 μL sterile phosphate buffered saline (PBS). At indicated time points, sera were collected from each animal, and concentrations of IFN-γ, IL-4, and IL-12 in the sera were evaluated by enzyme-linked immunosorbent assay (ELISA). Serum concentrations of IFN-γ, IL-4, and IL-12 were evaluated using an ELISA kit (eBioscience, San Diego, Calif.). Briefly, 96 well flat-bottom ELISA plates (NUNC) were coated with capture antibody according to the manufacture's recommendation and incubated overnight at 4° C. The plates were washed with PBS+0.05% Tween 20 (PBS-T), then incubated with manufacturer provided blocking solution for 1 hr at room temperature to block non-specific binding sites. After washing with PBS-T, sera diluted 1:10 was added to the wells and incubated for 2 hrs at room temperature. Plates were then incubated at room temperature for 1 hr with biotintylated detection antibody, washed, incubated with avidin conjugated to horse radish peroxidase (HRP) for 30 min at room temperature, washed, and finally incubated with tetramethylbenzidine substrate solution in the dark for 10 minutes at room temperature. The antibodies, avidin-HRP, and substrate solution were all diluted according to the manufacture's recommendation. Reactions were stopped with 2.0N sulfuric acid and the cytokine concentration in each well was determined by comparing the absorbance at 450 nm in each well to known standards. The levels of Th1- and Th2-type cytokines were determined in two different genetic backgrounds, i.e., in C57BL/6 mice and BALB/c mice. The following compounds were administered: A=compound (A-1 trans-conformer), B=compound (A-2), C=compound (A-3), D=compound (A-4), E=compound (A-5), Z=control (PBS alone), CRONY=α-C-GalCer, KRN=α-GalCer, GCK109 (A-1 trans-conformer), GCK151 (A-1 cis-conformer), GCK152 (A-7). The levels of cytokines were measured at 0, 2, 6, 12, 24, 48, and 72 hours after the compound administration. The levels of Th1-type cytokines IFN-γ and IL-12 are summarized in FIGS. 2A-C and 3A-C, respectively. Table 7 provides IFN-γ/IL-4 and IL-12/IL-4 ratios for various compounds, which can be used as indicators of their ability to selectively stimulate Th1-type immune responses.

IL-4 [2] = assay: IL-4 levels in sera upon i.v. glycolipid administration to C57BL/6 mice (ELISA); set-up: unit not given here
Protocol: as §1

IL-12 = IL-12 levels in sera upon i.v. glycolipid administration to C57BL/6 mice (ELISA); set-up: IL-12 levels, test 1 / IL-12 levels, test 2 / IL-12 levels, average / IL-12 levels, Total: unit not given here
Protocol: as §1

IFN-γ = IFN-γ levels in sera upon i.v. glycolipid administration to BALB/c mice (ELISA); set-up: IFN-γ levels, test 1 / IFN-γ levels, test 2 / IFN-γ levels, average / IFN-γ levels, Total: unit not given here; conditions: BALB/c
Protocol: as §1

CCCCCCCCCCCCCCCCC/C=C/CCCCCCCCC(=O)N[C@@H](CC[C@H]1O[C@H](CO)[C@H](O)[C@H](O)[C@H]1O)[C@H](O)[C@H](O)CCCCCCCCCCCCCC [A-3]
IL-4 level, average (IL-4 [1]; hour 0): 27 | IL-4 level, test 1 (IL-4 [1]; hour 0): 27 | IL-4 level, test 2 (IL-4 [1]; hour 0): 27 | IL-4 level, average (IL-4 [1]; hour 2): 307.5 | IL-4 level, test 1 (IL-4 [1]; hour 2): 273 | IL-4 level, test 2 (IL-4 [1]; hour 2): 342 | IL-4 level, average (IL-4 [1]; hour 6): 54.5 | IL-4 level, test 1 (IL-4 [1]; hour 6): 56 | IL-4 level, test 2 (IL-4 [1]; hour 6): 53 | IL-4 level, average (IL-4 [1]; hour 12): 48 | IL-4 level, test 1 (IL-4 [1]; hour 12): 44 | IL-4 level, test 2 (IL-4 [1]; hour 12): 52 | IL-4 level, average (IL-4 [1]; hour 24): 44 | IL-4 level, test 1 (IL-4 [1]; hour 24): 44 | IL-4 level, test 2 (IL-4 [1]; hour 24): 44 | IL-4 level, average (IL-4 [1]; hour 48): 43 | IL-4 level, test 1 (IL-4 [1]; hour 48): 48 | IL-4 level, test 2 (IL-4 [1]; hour 48): 38 | IL-4 level, average (IL-4 [1]; hour 72): 12.23 | IL-4 level, test 1 (IL-4 [1]; hour 72): 12.23 | IL-4 level, test 2 (IL-4 [1]; hour 72): 12.23 | IL-4 level, Total (IL-4 [1]; total over hours 0-72): 538 | IL-4 level, average (IL-4 [2]; hour 0): 46 | IL-4 level, test 1 (IL-4 [2]; hour 0): 46 | IL-4 level, test 2 (IL-4 [2]; hour 0): 46 | IL-4 level, average (IL-4 [2]; hour 2): 576 | IL-4 level, test 1 (IL-4 [2]; hour 2): 398 | IL-4 level, test 2 (IL-4 [2]; hour 2): 754 | IL-4 level, average (IL-4 [2]; hour 6): 72.5 | IL-4 level, test 1 (IL-4 [2]; hour 6): 59 | IL-4 level, test 2 (IL-4 [2]; hour 6): 86 | IL-4 level, average (IL-4 [2]; hour 12): 49 | IL-4 level, test 1 (IL-4 [2]; hour 12): 43 | IL-4 level, test 2 (IL-4 [2]; hour 12): 55 | IL-4 level, average (IL-4 [2]; hour 24): 57.5 | IL-4 level, test 1 (IL-4 [2]; hour 24): 49 | IL-4 level, test 2 (IL-4 [2]; hour 24): 66 | IL-4 level, average (IL-4 [2]; hour 48): 54.5 | IL-4 level, test 1 (IL-4 [2]; hour 48): 54 | IL-4 level, test 2 (IL-4 [2]; hour 48): 55 | IL-4 level, average (IL-4 [2]; hour 72): 58 | IL-4 level, test 1 (IL-4 [2]; hour 72): 54 | IL-4 level, test 2 (IL-4 [2]; hour 72): 62 | IL-4 level, Total (IL-4 [2]; total over hours 0-72): 915 | IL-12/IL-4 (B6) (IL-12; C57BL/6, ratio calculated from Tables 1-6): 1.5 | IL-12 levels, average (IL-12; C57BL/6, serum, hour 0): 5 | IL-12 levels, test 1 (IL-12; C57BL/6, serum, hour 0): 5 | IL-12 levels, test 2 (IL-12; C57BL/6, serum, hour 0): 5 | IL-12 levels, average (IL-12; C57BL/6, serum, hour 2): 75 | IL-12 levels, test 1 (IL-12; C57BL/6, serum, hour 2): 79 | IL-12 levels, test 2 (IL-12; C57BL/6, serum, hour 2): 71 | IL-12 levels, average (IL-12; C57BL/6, serum, hour 6): 442 | IL-12 levels, test 1 (IL-12; C57BL/6, serum, hour 6): 451 | IL-12 levels, test 2 (IL-12; C57BL/6, serum, hour 6): 433 | IL-12 levels, average (IL-12; C57BL/6, serum, hour 12): 608 | IL-12 levels, test 1 (IL-12; C57BL/6, serum, hour 12): 449 | IL-12 levels, test 2 (IL-12; C57BL/6, serum, hour 12): 767 | IL-12 levels, average (IL-12; C57BL/6, serum, hour 24): 89.5 | IL-12 levels, test 1 (IL-12; C57BL/6, serum, hour 24): 77 | IL-12 levels, test 2 (IL-12; C57BL/6, serum, hour 24): 102 | IL-12 levels, average (IL-12; C57BL/6, serum, hour 48): 99 | IL-12 levels, test 1 (IL-12; C57BL/6, serum, hour 48): 67 | IL-12 levels, test 2 (IL-12; C57BL/6, serum, hour 48): 131 | IL-12 levels, average (IL-12; C57BL/6, serum, hour 72): 80.5 | IL-12 levels, test 1 (IL-12; C57BL/6, serum, hour 72): 53 | IL-12 levels, test 2 (IL-12; C57BL/6, serum, hour 72): 108 | IL-12 levels, Total (IL-12; C57BL/6, serum, total over hours 0-72): 1400 | IFN-γ/IL-4 (BALB/c) (IFN-γ; ratio calculated from Tables 1-6): 40 | IFN-γ levels, average (IFN-γ; serum, hour 0): 27 | IFN-γ levels, test 1 (IFN-γ; serum, hour 0): 27 | IFN-γ levels, test 2 (IFN-γ; serum, hour 0): 27 | IFN-γ levels, average (IFN-γ; serum, hour 2): 163 | IFN-γ levels, test 1 (IFN-γ; serum, hour 2): 137 | IFN-γ levels, test 2 (IFN-γ; serum, hour 2): 189 | IFN-γ levels, average (IFN-γ; serum, hour 6): 1172 | IFN-γ levels, test 1 (IFN-γ; serum, hour 6): 1072 | IFN-γ levels, test 2 (IFN-γ; serum, hour 6): 1272 | IFN-γ levels, average (IFN-γ; serum, hour 12): 3938.5 | IFN-γ levels, test 1 (IFN-γ; serum, hour 12): 3891 | IFN-γ levels, test 2 (IFN-γ; serum, hour 12): 3986 | IFN-γ levels, average (IFN-γ; serum, hour 24): 15700 | IFN-γ levels, test 1 (IFN-γ; serum, hour 24): 14100 | IFN-γ levels, test 2 (IFN-γ; serum, hour 24): 17300 | IFN-γ levels, average (IFN-γ; serum, hour 48): 224.5 | IFN-γ levels, test 1 (IFN-γ; serum, hour 48): 231 | IFN-γ levels, test 2 (IFN-γ; serum, hour 48): 218 | IFN-γ levels, average (IFN-γ; serum, hour 72): 61 | IFN-γ levels, test 1 (IFN-γ; serum, hour 72): 62 | IFN-γ levels, test 2 (IFN-γ; serum, hour 72): 60 | IFN-γ levels, Total (IFN-γ; serum, total over hours 0-72): 21287
